Source: US20110065782A1, “METHODS OF IDENTIFYING COMPOUNDS THAT INHIBIT THE ACTIVATION OF A BIOMOLECULE AND METHODS OF TREATMENT USING THE COMPOUNDS” (priority 2009, published 2011)

Tests used:
[1] = biological target: T1, adenylate cyclase toxin (CyaA) (Bordetella pertussis, UniProt P0DKX7); test: Colorimetric adenylate cyclase enzymatic assay on CyaA; type: biochemical; details: concentration not given
T1 construct: made in house

Edema Factor (EF) = Edema Factor (EF) (Bacillus anthracis, UniProt P40136); test: biochemical; type: biochemical
Edema Factor (EF), sequence (P40136 34-800 limits assumed): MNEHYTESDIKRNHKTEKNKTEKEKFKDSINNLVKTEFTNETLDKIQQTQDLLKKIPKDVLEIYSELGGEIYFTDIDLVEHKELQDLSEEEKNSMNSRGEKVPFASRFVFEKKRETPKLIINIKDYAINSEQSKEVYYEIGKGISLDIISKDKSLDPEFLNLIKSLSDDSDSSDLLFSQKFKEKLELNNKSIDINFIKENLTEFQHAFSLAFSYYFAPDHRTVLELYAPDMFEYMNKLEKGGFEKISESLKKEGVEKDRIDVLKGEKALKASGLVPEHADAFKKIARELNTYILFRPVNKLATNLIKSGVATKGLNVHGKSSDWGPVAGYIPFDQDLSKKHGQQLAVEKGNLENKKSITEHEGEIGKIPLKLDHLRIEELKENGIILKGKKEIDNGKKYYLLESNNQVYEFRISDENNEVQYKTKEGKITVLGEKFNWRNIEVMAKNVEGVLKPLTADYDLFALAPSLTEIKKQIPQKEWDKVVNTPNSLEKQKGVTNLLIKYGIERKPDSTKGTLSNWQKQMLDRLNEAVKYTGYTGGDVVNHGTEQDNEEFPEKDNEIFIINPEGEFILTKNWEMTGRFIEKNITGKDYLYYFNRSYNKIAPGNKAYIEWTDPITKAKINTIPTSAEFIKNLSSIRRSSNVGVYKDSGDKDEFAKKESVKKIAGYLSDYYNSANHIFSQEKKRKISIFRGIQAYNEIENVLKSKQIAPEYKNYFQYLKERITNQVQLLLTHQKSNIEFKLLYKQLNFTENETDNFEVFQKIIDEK

preformed EF-CaM complex = preformed EF-CaM complex (Bacillus anthracis, UniProt P40136); type: biochemical
preformed EF-CaM complex, sequence (P40136 whole entry, looked up, one chain of several): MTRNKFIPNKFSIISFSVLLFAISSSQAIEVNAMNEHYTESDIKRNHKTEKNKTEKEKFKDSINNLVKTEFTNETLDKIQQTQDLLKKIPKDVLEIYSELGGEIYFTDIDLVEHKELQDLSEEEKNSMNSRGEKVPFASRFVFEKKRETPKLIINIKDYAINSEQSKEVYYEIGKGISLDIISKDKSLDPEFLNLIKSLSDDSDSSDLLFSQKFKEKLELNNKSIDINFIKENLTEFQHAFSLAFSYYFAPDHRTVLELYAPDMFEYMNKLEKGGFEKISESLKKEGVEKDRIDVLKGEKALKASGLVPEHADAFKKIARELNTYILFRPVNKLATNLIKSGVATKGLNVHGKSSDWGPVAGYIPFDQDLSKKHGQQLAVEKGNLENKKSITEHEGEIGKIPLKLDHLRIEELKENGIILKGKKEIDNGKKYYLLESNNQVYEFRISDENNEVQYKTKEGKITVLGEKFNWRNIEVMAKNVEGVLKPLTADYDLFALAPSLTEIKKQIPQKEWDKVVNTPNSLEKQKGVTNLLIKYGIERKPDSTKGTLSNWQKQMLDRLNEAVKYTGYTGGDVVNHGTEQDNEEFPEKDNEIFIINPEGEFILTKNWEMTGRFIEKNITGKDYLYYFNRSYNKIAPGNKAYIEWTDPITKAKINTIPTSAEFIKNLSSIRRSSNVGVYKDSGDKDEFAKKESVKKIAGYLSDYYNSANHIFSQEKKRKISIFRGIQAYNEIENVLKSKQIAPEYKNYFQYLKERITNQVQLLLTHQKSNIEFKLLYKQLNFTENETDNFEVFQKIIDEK

calmodulin (CaM) = biological target: T2, calmodulin (CaM) (Homo sapiens, UniProt P0DP23); test: CaM binding of peptide P233-254 probed by steady-state tryptophan anisotropy fluorescence; details: 10 μM TUAdiCl; for fluorescence anisotropy (r) of P233-254 peptide: peptide 2 μM, calcium present
T2 construct: made in house

T1 sequence (P0DKX7 whole entry, looked up): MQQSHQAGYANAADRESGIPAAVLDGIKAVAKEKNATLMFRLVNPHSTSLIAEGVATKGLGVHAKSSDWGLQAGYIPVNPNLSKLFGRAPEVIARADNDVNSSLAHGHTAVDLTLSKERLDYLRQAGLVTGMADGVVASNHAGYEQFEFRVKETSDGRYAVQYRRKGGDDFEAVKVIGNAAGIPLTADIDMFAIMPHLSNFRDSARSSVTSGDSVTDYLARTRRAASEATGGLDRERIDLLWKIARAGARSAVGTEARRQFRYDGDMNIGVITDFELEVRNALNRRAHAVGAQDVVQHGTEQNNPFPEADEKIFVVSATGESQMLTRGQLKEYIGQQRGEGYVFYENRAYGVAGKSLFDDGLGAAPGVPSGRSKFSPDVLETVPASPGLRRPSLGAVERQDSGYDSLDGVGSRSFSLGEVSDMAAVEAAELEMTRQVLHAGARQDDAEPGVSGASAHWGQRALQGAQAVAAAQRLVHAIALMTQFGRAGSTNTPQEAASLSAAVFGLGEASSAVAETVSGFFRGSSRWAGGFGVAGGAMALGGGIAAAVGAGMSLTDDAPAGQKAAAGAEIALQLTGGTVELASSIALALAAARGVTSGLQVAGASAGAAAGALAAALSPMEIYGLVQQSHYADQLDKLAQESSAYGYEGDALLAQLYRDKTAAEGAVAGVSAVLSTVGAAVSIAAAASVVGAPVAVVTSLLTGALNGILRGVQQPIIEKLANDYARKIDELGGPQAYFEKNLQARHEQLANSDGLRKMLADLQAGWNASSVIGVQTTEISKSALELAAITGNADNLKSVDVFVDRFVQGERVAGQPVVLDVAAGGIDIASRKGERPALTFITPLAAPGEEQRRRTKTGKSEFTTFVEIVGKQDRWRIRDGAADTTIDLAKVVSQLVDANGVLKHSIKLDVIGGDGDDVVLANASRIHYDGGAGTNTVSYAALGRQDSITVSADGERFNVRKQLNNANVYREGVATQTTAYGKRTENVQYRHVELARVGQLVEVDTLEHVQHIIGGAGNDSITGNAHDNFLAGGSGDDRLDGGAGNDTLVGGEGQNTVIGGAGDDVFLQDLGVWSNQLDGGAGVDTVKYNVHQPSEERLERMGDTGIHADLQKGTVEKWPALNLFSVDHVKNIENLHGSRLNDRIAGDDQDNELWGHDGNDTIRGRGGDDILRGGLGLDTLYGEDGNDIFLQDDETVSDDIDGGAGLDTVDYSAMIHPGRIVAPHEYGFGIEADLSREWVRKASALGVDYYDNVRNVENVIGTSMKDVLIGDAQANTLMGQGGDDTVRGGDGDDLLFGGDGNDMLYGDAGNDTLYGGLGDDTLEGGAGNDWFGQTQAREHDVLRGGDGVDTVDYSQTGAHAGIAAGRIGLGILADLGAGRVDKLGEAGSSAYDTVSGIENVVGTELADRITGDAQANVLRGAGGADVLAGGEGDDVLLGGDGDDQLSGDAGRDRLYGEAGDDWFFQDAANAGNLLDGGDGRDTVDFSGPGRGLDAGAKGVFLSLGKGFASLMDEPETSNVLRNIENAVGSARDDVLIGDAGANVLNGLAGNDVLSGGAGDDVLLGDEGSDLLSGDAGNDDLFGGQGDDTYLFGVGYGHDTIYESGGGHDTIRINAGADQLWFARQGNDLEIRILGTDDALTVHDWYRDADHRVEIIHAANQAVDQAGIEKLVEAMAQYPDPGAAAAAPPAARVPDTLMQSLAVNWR

Compound	inhibition of CyaA activity [1]	IC50 (Edema Factor (EF))	concentration at which EF activity is inhibited (Edema Factor (EF))	inhibition at 100 µM (Edema Factor (EF))	inhibition at 10 µM (Edema Factor (EF); read-out: inhibition of EF enzymatic activity)	inhibition of enzymatic activity of the preformed EF-CaM complex (preformed EF-CaM complex)	effect on the ability of CaM to associate with CaM-binding peptide from CyaA (calmodulin (CaM))	fluorescence anisotropy (r) of P233-254 peptide (calmodulin (CaM); with equimolar CaM)	fluorescence anisotropy (r) of P233-254 peptide (calmodulin (CaM); without CaM)
O=C(Nc1ccc(Cl)c(Cl)c1)Nc1cc(-c2ccccc2)sc1C(=O)O [drawing 10]	inhibit CyaA activity								
O=C(Nc1ccc(Cl)c(Cl)c1)Nc1cc(-c2ccccc2)sc1C(=O)O [TUAdiCl]		2000 to 3000 nM	less than 10 μM	98 ± 6%	> 80%	significantly inhibit	no effect	0.095	0.027
